US9237988B2, “Benzalkonium chloride compositions for inhibiting the hydrolytic activity of endogenous matrix metalloproteinases in dental restorations” (Bisco, Inc., priority 2010, dated 2016)

Biological target: MMP-9 enzymes (Homo sapiens, UniProt P14780)
Assay: MMP inhibition after incubation with MMP-9 enzymes, Anaspec SensoLyte Generic MMP Assay Kit
Type: biochemical
Conditions: for Percent MMP Inhibition at 1 Hour / Percent MMP Inhibition at 4 Hours: aqueous solution; for Percent MMP Inhibition at 1 Hour: 1 hour incubation; for Percent MMP Inhibition at 4 Hours: 4 hours incubation
Method: According to another presently expected one exemplary embodiment of the present application, multiple benzalkonium chloride dental solutions were prepared in aqueous solutions in concentrations varying from 0.02% to 2%, and were incubated with MMP-9 enzymes for 4 hours. After both 1 and 4 hours of incubation, standard negative and positive controls were compared to the below concentrations of the test compositions using an Anaspec SensoLyte Generic MMP Assay Kit (#72095, Anaspec, Fremont, Calif., USA), with the resulting MMP inhibitions shown in Tables 1 and 2 below.

[1] = 0.5% BAC by weight, listed as benzalkonium chloride

Chain of MMP-9 enzymes (P14780 94-707): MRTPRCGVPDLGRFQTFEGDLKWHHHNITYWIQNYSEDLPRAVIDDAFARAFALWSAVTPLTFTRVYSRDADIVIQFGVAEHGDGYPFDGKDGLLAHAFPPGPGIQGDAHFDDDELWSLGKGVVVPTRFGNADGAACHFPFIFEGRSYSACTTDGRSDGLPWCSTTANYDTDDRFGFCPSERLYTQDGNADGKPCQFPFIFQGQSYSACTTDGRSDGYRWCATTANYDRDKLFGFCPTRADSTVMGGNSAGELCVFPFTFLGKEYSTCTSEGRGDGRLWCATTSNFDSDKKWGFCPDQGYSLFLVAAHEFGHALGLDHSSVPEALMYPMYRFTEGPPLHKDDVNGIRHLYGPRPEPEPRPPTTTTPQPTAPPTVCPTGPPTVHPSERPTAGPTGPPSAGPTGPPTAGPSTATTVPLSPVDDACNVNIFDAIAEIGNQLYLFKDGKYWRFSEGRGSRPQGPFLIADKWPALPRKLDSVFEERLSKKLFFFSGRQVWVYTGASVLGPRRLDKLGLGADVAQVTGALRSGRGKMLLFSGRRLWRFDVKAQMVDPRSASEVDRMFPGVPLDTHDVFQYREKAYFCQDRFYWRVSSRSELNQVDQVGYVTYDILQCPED

## benzalkonium chloride [BAC]
0.02% BAC by weight
  Percent MMP Inhibition at 1 Hour: 0%
  Percent MMP Inhibition at 4 Hours: 3%
0.05% BAC by weight
  Percent MMP Inhibition at 1 Hour: 0%
  Percent MMP Inhibition at 4 Hours: 6%
0.5% BAC by weight
  Percent MMP Inhibition at 1 Hour: 96.5%
  Percent MMP Inhibition at 4 Hours: 85%
[1]
  Percent MMP Inhibition at 1 Hour: 96%
  Percent MMP Inhibition at 4 Hours: at least 85%
1.0% BAC by weight
  Percent MMP Inhibition at 1 Hour: 98.3%
  Percent MMP Inhibition at 4 Hours: 95%
2.0% BAC by weight
  Percent MMP Inhibition at 1 Hour: 100%
  Percent MMP Inhibition at 4 Hours: 100%
Concentration as low as 0.02% by weight, time not stated
  MMP inhibition: displayed MMP inhibition
